PubChem BioAssay AID248 (DTP/NCI, 2004)
Several values for one entry are separate records, joined by “and”; a condition that tells them apart may be missing. Equal values may be shown once. Toxic doses and inconclusive results are not listed. No stated cut-off is given here; in the data, active means T/C of 150% or more; inactive means T/C below 125%.

Tested on: L1210 leukemia ip in BDF1 mice, survival T/C
Assay: NCI In Vivo Anticancer Drug Screen. Data for tumor model L1210 Leukemia (intraperitoneal) in B6D2F1 (BDF1) mice
Details: endpoint: mean survival time, higher = longer survival
Summary of the method: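 Tumor was transplanted into mice, which were then dosed with test compound or vehicle alone. Survival was recorded for each group, and the treated figure was expressed relative to the control figure.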

[1] = dose: 100.0 mg/kg/injection, schedule: Q01DX009 (ip), vehicle: Klucel (hydroxypropylcellulose) (HPC)
[2] = dose: 100.0 mg/kg/injection, schedule: Q04DX003 (ip), vehicle: Klucel (hydroxypropylcellulose) (HPC)
[3] = dose: 200.0 mg/kg/injection, schedule: Q01DX009 (ip), vehicle: Klucel (hydroxypropylcellulose) (HPC)
[4] = dose: 200.0 mg/kg/injection, schedule: Q04DX003 (ip), vehicle: Klucel (hydroxypropylcellulose) (HPC)
[5] = dose: 400.0 mg/kg/injection, schedule: Q04DX003 (ip), vehicle: Klucel (hydroxypropylcellulose) (HPC)
[6] = dose: 100.0 mg/kg/injection, schedule: Q01DX001 (ip), vehicle: carboxymethylcellulose (CMC)
[7] = dose: 200.0 mg/kg/injection, schedule: Q01DX001 (ip), vehicle: carboxymethylcellulose (CMC)
[8] = dose: 400.0 mg/kg/injection, schedule: Q01DX001 (ip), vehicle: carboxymethylcellulose (CMC)
[9] = dose: 100.0 mg/kg/injection, schedule: Q04DX002 (ip), vehicle: Klucel (hydroxypropylcellulose) (HPC)
[10] = dose: 100.0 mg/kg/injection, schedule: Q01DX001 (ip), vehicle: saline
[11] = dose: 200.0 mg/kg/injection, schedule: Q01DX001 (ip), vehicle: saline
[12] = dose: 400.0 mg/kg/injection, schedule: Q01DX009 (ip), vehicle: Klucel (hydroxypropylcellulose) (HPC)
[13] = dose: 100.0 mg/kg/injection, schedule: Q04DX003 (ip), vehicle: saline
[14] = dose: 200.0 mg/kg/injection, schedule: Q04DX003 (ip), vehicle: saline
[15] = dose: 400.0 mg/kg/injection, schedule: Q04DX003 (ip), vehicle: saline

Measured: T/C

COc1cc(/C=C/C(=O)c2ccc3ccccc3c2)cc(OC)c1OC
inactive: dose: 100.0 mg/kg/injection, schedule: Q04DX002 (ip), vehicle: saline with Tween-80 97 % of control | dose: 200.0 mg/kg/injection, schedule: Q04DX002 (ip), vehicle: saline with Tween-80 107 % of control | dose: 400.0 mg/kg/injection, schedule: Q04DX002 (ip), vehicle: saline with Tween-80 87 % of control

COC(=O)C(=O)CC(=O)c1cccc(Cl)c1
inactive: dose: 10.0 mg/kg/injection, schedule: Q04DX002 (ip), vehicle: Klucel (hydroxypropylcellulose) (HPC) 92 % of control | dose: 20.0 mg/kg/injection, schedule: Q04DX002 (ip), vehicle: Klucel (hydroxypropylcellulose) (HPC) 96 % of control | dose: 40.0 mg/kg/injection, schedule: Q04DX002 (ip), vehicle: Klucel (hydroxypropylcellulose) (HPC) 105 % of control

CCOc1cc(N)ccc1C
inactive: [1] 97 % of control | [2] 108 % of control | [3] 99 % of control | [4] 97 % of control | [5] 101 % of control

CNC(=S)N/N=C/C(CO)=N\NC(=S)NC
inactive: dose: 50.0 mg/kg/injection, schedule: Q01DX001 (ip), vehicle: carboxymethylcellulose (CMC) 101 % of control | [6] 103 % of control | [7] 112 % of control | [8] 97 % of control

O=C(/C=C/c1ccco1)c1ccc(O)cc1
inactive: [9] 101 % of control | dose: 200.0 mg/kg/injection, schedule: Q04DX002 (ip), vehicle: Klucel (hydroxypropylcellulose) (HPC) 90 % of control | dose: 400.0 mg/kg/injection, schedule: Q04DX002 (ip), vehicle: Klucel (hydroxypropylcellulose) (HPC) 93 % of control

O=C(CCl)c1ccc[nH]1
inactive: dose: 50.0 mg/kg/injection, schedule: Q01DX015 (ip), vehicle: carboxymethylcellulose (CMC) 93 % of control | dose: 75.0 mg/kg/injection, schedule: Q01DX001 (ip), vehicle: carboxymethylcellulose (CMC) 93 % of control | dose: 100.0 mg/kg/injection, schedule: Q01DX015 (ip), vehicle: carboxymethylcellulose (CMC) 93 % of control

O=C/C=C/c1cc(Cl)ccc1O
inactive: [10] 108 % of control | [11] 103 % of control

CCC1CC2CC(c3cc4c(cc3OC)N(C)C3C(O)(C(=O)OC)C(OC(C)=O)C5(CC)C=CCN6CCC43C65)c3[nH]c4ccccc4c3CCN(C1)C2 (centres undefined)
inactive: dose: 0.25 mg/kg/injection, schedule: Q01DX009 (ip), vehicle: Klucel (hydroxypropylcellulose) (HPC) 100 % of control | dose: 0.5 mg/kg/injection, schedule: Q01DX009 (ip), vehicle: Klucel (hydroxypropylcellulose) (HPC) 105 % of control | dose: 1.0 mg/kg/injection, schedule: Q01DX009 (ip), vehicle: Klucel (hydroxypropylcellulose) (HPC) 101 % of control | dose: 2.0 mg/kg/injection, schedule: Q01DX009 (ip), vehicle: Klucel (hydroxypropylcellulose) (HPC) 97 % of control | dose: 4.0 mg/kg/injection, schedule: Q01DX009 (ip), vehicle: Klucel (hydroxypropylcellulose) (HPC) 110 % of control | dose: 8.0 mg/kg/injection, schedule: Q01DX009 (ip), vehicle: Klucel (hydroxypropylcellulose) (HPC) 103 % of control

O=[N+]([O-])c1ccc(OCc2ccccc2)c(Cl)c1
inactive: dose: 25.0 mg/kg/injection, schedule: Q04DX003 (ip), vehicle: saline with Tween-80 102 % of control | dose: 50.0 mg/kg/injection, schedule: Q04DX003 (ip), vehicle: saline with Tween-80 96 % of control | dose: 100.0 mg/kg/injection, schedule: Q04DX003 (ip), vehicle: saline with Tween-80 98 % of control and 105 % of control

Nc1nc(N)c(-c2ccc(Cl)cc2)c(CCc2cccc(NC(=O)c3cccc(S(=O)(=O)F)c3)c2)n1
inactive: dose: 100.0 mg/kg/injection, schedule: Q01DX001 (ip), vehicle: saline with Tween-80 93 % of control | dose: 200.0 mg/kg/injection, schedule: Q01DX001 (ip), vehicle: saline with Tween-80 95 % of control | dose: 400.0 mg/kg/injection, schedule: Q01DX001 (ip), vehicle: saline with Tween-80 97 % of control

Nc1nc(N)c2c(n1)CNC2
inactive: [6] 112 % of control | [7] 112 % of control | [8] 104 % of control

CCCCCCC/C=N/NC(=O)c1ccccc1
inactive: [2] 105 % of control | [4] 109 % of control | [5] 98 % of control

Oc1c(-c2ccccc2)n[nH]c1-c1ccccc1
inactive: dose: 50.0 mg/kg/injection, schedule: Q01DX009 (ip), vehicle: Klucel (hydroxypropylcellulose) (HPC) 98 % of control | [1] 98 % of control | [3] 94 % of control

CCCCNC(=NC)c1ccc(NC(=O)c2ccc(C(=O)Nc3ccc(C(=NC)NCCCC)cc3)cc2)cc1
inactive: dose: 4.4 mg/kg/injection, schedule: Q01DX Z (ip), vehicle: saline 112 % of control | dose: 6.6 mg/kg/injection, schedule: Q01DX Z (ip), vehicle: saline 120 % of control

O=C(NCc1cccnc1)c1ccccc1N=Cc1cc(Cl)cc(Cl)c1O
inactive: [1] 98 % of control | [3] 96 % of control | [12] 89 % of control

Cc1nc(C(=O)NN)co1
inactive: dose: 5.0 mg/kg/injection, schedule: Q01DX001 (ip), vehicle: saline 106 % of control | dose: 10.0 mg/kg/injection, schedule: Q01DX001 (ip), vehicle: saline 110 % of control | dose: 20.0 mg/kg/injection, schedule: Q01DX001 (ip), vehicle: saline 101 % of control | dose: 40.0 mg/kg/injection, schedule: Q01DX001 (ip), vehicle: saline 101 % of control | dose: 80.0 mg/kg/injection, schedule: Q01DX001 (ip), vehicle: saline 104 % of control | [10] 98 % of control

CCCCNC(=O)NC(C(=O)OCC)C(=O)OCC
inactive: [1] 97 % of control | [2] 100 % of control | [3] 102 % of control | [4] 100 % of control | [12] 96 % of control | [5] 102 % of control

CN(C)C(=S)N=Nc1c(O)[nH]c2ccccc12
inactive: dose: 75.0 mg/kg/injection, schedule: Q01DX001 (ip), vehicle: other 103 % of control | dose: 150.0 mg/kg/injection, schedule: Q01DX001 (ip), vehicle: other 96 % of control | dose: 300.0 mg/kg/injection, schedule: Q01DX001 (ip), vehicle: other 105 % of control

CCCOC(=O)Nc1cccc2ccccc12
inactive: dose: 12.5 mg/kg/injection, schedule: Q04DX002 (ip), vehicle: Klucel (hydroxypropylcellulose) (HPC) 101 % of control | dose: 25.0 mg/kg/injection, schedule: Q04DX002 (ip), vehicle: Klucel (hydroxypropylcellulose) (HPC) 86 % of control | dose: 50.0 mg/kg/injection, schedule: Q04DX002 (ip), vehicle: Klucel (hydroxypropylcellulose) (HPC) 96 % of control | [9] 101 % of control

Cc1ccnc(N=Cc2ccccc2)c1
inactive: dose: 50.0 mg/kg/injection, schedule: Q01DX001 (ip), vehicle: saline 89 % of control | [10] 101 % of control

CC1(C)CC(=O)c2ccccc21
inactive: dose: 25.0 mg/kg/injection, schedule: Q01DX009 (ip), vehicle: saline 101 % of control | dose: 50.0 mg/kg/injection, schedule: Q01DX009 (ip), vehicle: saline 94 % of control and 109 % of control | dose: 100.0 mg/kg/injection, schedule: Q01DX009 (ip), vehicle: saline 101 % of control and 102 % of control | [13] 100 % of control | dose: 200.0 mg/kg/injection, schedule: Q01DX009 (ip), vehicle: saline 104 % of control | [14] 96 % of control | [15] 102 % of control

CCOC(=O)CNCC(O)C(Cl)(Cl)Cl (centres undefined)
inactive: dose: 100.0 mg/kg/injection, schedule: Q01DX009 (ip), vehicle: saline with Tween-80 92 % of control | dose: 200.0 mg/kg/injection, schedule: Q01DX009 (ip), vehicle: saline with Tween-80 86 % of control

O=[N+]([O-])c1cccc(OCCCCOc2ccccc2)c1
inactive: [1] 98 % of control | [13] 100 % of control | [3] 101 % of control | [14] 101 % of control | [12] 102 % of control | [15] 95 % of control

CC(=O)OCC1OC(n2cc(C)c(=O)[nH]c2=O)CC1OC(C)=O (centres undefined)
inactive: dose: 684.0 mg/kg/injection, schedule: Q02DX010 (ip), vehicle: other 99 % of control | dose: 1368.0 mg/kg/injection, schedule: Q02DX010 (ip), vehicle: other 105 % of control | dose: 2052.0 mg/kg/injection, schedule: Q02DX010 (ip), vehicle: other 96 % of control

Cc1cccc(NC(=O)NCCO)c1
inactive: [6] 103 % of control | [7] 109 % of control | [8] 97 % of control

O=C(O)c1ccccc1C(=O)c1ccc(F)cc1
inactive: [10] 96 % of control | [11] 102 % of control | dose: 400.0 mg/kg/injection, schedule: Q01DX001 (ip), vehicle: saline 93 % of control
